Assay results as given in ChEMBL document CHEMBL5465560, “Selectivity Literature for EUbOPEN Chemogenomic Library” (2024).

Key:
[1] = molecular target: T1, Histone-lysine N-methyltransferase SMYD3 (Homo sapiens) (UniProt Q9H7B4); conditions: at 10 µM
T1 sequence (whole entry): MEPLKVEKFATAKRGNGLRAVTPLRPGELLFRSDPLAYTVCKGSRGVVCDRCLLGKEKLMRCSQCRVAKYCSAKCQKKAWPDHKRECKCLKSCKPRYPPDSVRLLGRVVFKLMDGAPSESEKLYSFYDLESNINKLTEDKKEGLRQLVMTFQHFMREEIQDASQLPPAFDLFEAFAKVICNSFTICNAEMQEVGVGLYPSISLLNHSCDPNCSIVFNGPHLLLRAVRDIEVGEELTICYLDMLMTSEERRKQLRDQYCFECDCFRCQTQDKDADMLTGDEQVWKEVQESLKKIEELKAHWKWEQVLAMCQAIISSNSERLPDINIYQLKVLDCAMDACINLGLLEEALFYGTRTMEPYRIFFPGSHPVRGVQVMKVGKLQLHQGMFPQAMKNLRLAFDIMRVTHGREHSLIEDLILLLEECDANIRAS

[2] = molecular target: Histone-lysine N-methyltransferase PRDM9 (Homo sapiens) (UniProt Q9NQV7); conditions: at 1 µM
[3] = molecular target: T2, Serine/threonine-protein kinase Chk1 (Homo sapiens) (UniProt O14757); assay: Selectivity interaction (KinomeScan (DiscoverX)) EUB0000045b CHEK1
T2 sequence (whole entry): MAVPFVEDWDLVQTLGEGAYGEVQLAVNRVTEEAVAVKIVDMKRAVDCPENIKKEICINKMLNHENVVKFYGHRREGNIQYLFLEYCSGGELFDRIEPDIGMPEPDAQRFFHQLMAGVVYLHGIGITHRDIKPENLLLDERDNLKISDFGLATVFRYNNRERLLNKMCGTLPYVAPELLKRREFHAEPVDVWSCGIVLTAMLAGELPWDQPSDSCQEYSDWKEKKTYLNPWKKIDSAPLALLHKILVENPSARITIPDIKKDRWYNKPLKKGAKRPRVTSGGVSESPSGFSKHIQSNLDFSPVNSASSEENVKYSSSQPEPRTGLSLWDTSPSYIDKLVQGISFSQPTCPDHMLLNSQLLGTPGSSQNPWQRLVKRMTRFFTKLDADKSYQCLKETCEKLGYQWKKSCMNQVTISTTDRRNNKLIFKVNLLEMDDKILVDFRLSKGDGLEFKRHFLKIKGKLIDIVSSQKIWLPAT

[4] = molecular target: Mitogen-activated protein kinase 4 (Homo sapiens) (UniProt P31152); assay: Selectivity interaction (KinomeScan (DiscoverX)) EUB0000695a MAPK4; conditions: at 100 nM
[5] = molecular target: T3, Serine/threonine-protein kinase ICK (Homo sapiens) (UniProt Q9UPZ9); conditions: at 10 µM
T3 sequence (whole entry): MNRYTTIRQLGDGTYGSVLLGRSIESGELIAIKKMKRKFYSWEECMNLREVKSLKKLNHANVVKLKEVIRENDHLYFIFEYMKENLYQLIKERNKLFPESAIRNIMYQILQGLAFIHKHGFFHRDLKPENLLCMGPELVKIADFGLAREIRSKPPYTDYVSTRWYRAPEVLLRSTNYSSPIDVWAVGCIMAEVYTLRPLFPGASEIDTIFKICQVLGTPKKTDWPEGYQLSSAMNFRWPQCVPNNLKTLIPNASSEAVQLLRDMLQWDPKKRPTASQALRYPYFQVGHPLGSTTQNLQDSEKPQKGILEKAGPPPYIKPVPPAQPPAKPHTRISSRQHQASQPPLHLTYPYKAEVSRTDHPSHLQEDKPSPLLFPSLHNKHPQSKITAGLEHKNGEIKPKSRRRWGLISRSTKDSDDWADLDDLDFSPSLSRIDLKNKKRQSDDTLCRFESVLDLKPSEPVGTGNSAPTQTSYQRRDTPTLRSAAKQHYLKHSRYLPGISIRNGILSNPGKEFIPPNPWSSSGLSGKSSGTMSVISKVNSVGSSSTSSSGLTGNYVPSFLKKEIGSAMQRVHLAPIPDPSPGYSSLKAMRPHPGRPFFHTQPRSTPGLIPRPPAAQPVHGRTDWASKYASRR

[6] = molecular target: Serine/threonine-protein kinase PAK 3 (Homo sapiens) (UniProt O75914); assay: Selectivity interaction (Kinase screening (Nanosyn)) EUB0000604a PAK3
[7] = tested on: Phosphatidylinositol 4,5-bisphosphate 3-kinase catalytic subunit alpha isoform (Homo sapiens), P42336 [I800L]; conditions: at 10 µM
[8] = molecular target: Mitogen-activated protein kinase kinase kinase kinase 1 (Homo sapiens) (UniProt Q92918); assay: Selectivity interaction (KinomeScan (DiscoverX)) EUB0000092b MAP4K1; conditions: at 10 µM
Sequence of Mitogen-activated protein kinase kinase kinase kinase 1 (Homo sapiens) (Q92918 whole entry, looked up): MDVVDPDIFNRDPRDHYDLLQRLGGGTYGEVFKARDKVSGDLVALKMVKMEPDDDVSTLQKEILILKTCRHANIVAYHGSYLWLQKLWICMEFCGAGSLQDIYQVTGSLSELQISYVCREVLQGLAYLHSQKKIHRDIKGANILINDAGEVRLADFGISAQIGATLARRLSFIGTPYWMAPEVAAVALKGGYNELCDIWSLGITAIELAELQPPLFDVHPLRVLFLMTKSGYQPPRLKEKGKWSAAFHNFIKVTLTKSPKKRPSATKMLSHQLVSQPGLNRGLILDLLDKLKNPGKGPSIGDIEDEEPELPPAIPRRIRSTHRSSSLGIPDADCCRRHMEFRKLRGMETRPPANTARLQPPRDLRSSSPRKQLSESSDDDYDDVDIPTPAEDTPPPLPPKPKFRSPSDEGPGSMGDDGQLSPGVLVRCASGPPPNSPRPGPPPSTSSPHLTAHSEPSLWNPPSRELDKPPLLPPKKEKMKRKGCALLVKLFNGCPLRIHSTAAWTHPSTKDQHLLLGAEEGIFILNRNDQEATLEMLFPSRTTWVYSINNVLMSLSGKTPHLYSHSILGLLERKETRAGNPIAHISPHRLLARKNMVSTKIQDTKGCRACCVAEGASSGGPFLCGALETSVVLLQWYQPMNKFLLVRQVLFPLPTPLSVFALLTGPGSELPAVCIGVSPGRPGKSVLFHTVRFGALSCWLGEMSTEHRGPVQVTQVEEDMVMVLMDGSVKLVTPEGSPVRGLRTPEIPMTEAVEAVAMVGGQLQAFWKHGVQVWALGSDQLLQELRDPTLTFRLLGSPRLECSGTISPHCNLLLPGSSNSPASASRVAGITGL

Sequence of Phosphatidylinositol 4,5-bisphosphate 3-kinase catalytic subunit alpha isoform (Homo sapiens), P42336 [I800L] (P42336 whole entry I800L, canonical isoform): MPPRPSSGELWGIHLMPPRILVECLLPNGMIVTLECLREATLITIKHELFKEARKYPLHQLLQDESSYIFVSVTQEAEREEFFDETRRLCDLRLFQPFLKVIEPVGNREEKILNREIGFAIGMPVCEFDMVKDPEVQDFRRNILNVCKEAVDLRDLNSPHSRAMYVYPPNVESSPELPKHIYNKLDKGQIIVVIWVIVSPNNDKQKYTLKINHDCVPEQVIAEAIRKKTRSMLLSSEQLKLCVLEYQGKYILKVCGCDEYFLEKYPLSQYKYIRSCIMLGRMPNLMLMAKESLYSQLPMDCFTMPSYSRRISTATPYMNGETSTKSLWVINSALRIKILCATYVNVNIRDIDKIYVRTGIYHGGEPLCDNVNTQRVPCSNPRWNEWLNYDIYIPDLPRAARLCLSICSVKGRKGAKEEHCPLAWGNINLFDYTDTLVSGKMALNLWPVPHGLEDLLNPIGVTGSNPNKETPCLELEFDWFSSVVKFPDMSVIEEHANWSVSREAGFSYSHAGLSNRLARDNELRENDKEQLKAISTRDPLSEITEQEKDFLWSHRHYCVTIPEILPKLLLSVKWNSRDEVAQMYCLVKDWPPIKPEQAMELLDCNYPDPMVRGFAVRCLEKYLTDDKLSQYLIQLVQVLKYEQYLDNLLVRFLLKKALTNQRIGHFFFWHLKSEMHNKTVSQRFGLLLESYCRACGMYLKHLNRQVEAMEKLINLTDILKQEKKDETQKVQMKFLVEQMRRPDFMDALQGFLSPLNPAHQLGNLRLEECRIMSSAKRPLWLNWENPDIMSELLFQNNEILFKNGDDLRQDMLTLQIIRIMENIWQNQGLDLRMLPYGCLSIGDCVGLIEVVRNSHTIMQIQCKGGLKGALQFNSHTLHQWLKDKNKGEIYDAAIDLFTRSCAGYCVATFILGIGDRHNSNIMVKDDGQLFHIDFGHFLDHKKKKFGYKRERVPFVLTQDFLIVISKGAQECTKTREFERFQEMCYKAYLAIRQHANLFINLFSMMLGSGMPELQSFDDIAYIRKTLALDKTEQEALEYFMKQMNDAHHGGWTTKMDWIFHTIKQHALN
Sequence of Histone-lysine N-methyltransferase PRDM9 (Homo sapiens) (Q9NQV7 whole entry): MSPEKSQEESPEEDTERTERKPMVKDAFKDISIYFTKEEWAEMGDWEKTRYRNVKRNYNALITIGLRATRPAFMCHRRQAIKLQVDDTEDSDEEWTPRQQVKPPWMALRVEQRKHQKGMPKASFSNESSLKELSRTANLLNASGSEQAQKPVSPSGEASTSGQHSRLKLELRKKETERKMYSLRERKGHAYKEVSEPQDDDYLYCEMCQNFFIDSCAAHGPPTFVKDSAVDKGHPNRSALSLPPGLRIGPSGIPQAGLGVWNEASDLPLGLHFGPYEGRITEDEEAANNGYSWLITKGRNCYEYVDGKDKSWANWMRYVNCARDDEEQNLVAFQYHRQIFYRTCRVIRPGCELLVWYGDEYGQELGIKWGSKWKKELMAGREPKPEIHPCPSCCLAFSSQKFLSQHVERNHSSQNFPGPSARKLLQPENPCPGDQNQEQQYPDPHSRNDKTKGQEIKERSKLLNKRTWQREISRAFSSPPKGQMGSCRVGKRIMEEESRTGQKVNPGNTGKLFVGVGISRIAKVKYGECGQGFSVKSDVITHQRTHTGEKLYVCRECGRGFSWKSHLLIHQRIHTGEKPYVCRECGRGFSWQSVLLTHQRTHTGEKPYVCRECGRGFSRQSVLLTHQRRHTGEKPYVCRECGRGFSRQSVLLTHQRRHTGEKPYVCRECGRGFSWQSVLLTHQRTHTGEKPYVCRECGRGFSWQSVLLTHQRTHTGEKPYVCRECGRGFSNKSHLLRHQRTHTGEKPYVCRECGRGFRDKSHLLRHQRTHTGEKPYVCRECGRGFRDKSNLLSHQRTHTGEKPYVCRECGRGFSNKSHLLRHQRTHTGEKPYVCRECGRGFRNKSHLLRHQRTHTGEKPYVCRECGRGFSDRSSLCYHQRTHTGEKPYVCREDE
Sequence of Mitogen-activated protein kinase 4 (Homo sapiens) (P31152 whole entry): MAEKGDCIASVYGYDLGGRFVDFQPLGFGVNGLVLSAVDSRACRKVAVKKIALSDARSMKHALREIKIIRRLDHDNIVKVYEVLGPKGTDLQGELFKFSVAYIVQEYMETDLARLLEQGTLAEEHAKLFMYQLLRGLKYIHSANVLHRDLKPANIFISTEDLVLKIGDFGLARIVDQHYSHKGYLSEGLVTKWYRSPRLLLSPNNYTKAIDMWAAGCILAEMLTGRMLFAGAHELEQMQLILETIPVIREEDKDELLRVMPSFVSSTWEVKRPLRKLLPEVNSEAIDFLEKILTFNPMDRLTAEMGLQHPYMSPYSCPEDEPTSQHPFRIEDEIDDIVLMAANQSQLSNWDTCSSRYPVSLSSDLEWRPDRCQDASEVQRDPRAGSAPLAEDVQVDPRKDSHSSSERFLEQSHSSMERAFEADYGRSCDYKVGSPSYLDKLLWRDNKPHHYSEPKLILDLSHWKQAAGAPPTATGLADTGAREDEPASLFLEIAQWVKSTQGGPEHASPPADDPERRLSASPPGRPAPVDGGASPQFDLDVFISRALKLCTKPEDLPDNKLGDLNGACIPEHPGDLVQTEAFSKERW
Sequence of Serine/threonine-protein kinase PAK 3 (Homo sapiens) (O75914 whole entry, looked up, canonical isoform): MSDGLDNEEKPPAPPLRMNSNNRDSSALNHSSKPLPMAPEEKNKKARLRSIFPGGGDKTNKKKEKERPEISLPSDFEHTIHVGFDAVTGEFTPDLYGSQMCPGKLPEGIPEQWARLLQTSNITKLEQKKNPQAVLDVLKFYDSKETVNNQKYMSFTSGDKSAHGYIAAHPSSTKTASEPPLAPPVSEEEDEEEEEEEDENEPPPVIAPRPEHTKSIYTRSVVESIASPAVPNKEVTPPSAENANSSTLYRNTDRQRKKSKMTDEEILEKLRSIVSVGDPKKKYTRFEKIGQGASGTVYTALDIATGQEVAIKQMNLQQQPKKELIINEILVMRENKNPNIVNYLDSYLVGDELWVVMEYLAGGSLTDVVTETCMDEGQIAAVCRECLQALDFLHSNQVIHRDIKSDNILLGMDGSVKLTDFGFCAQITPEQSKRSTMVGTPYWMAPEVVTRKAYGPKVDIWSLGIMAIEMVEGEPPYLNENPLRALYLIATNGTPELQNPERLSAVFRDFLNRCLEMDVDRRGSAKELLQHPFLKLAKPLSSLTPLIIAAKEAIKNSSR

CNCCN1CCC(c2cc(CN(C)C(=O)c3cccc(Oc4ccccc4)c3)ccn2)CC1
% activity [1]: > 90%
% activity [2]: > 90%

C=CC(=O)Nc1cc(-n2c(=O)ccc3cnc4ccc(-c5ccc(NS(C)(=O)=O)cc5)cc4c32)ccc1C
% of control ([3]; at 1 µM): 100%
% of control ([3]; at 10 µM): 79%

Cc1cc(F)c(C(=O)Nc2cccc(-c3nncn3C(C)C)n2)cc1-n1cnc(C2CC2)c1
% of control [4]: 100%

Cc1cc([C@@H](C)Nc2ccccc2C(=O)O)c2nc(N3CCOCC3)cc(=O)n2c1 [AZD-6482]
% of control [5]: 100%

Cc1cnc(Nc2ccc(F)cc2Cl)nc1-c1c[nH]c(C(=O)N[C@H](CO)c2cccc(Cl)c2)c1
% of inhibition [6]: 3%

CCC(=O)N1CCN(c2ccc(-n3c(=O)ccc4cnc5ccc(-c6cnc7ccccc7c6)cc5c43)cc2C(F)(F)F)CC1
% of control [7]: 0%
% of control [8]: 30%
